# Read-outs that look alike come from different tables or passages of the source.
# Key:
# Assay in all cases: tryptophan fluorescence quenching titration
# Assay type in all cases: binding
# HasAp [1] = target: T1, HasAp (Pseudomonas aeruginosa, UniProt G3XD33); conditions: read-out: KD (nM, ± SD)
# HasAp [2] = target: T1, HasAp; conditions: read-out: KD (nM, ± SD); remark: listed apart in the source
# HasAp [3] = target: T1, HasAp
smiles,measurement,setting,value
C1=[N+]2c3ccccc3[N+]3=Cc4ccccc4[O][Fe-]23[O]c2ccccc21 [FeSal],Kd,HasAp [1],1050 ± 100 nM
C=CC1=C(C)C2=[N+]3C1=Cc1c(C)c(C=C)c4[n]1[Ga-]31[n]3c(c(C)c(CCC(=O)O)c3=CC3=[N+]1C(=C4)C(C)=C3CCC(=O)O)=C2 (stereo not shown) [GaPPIX],Kd,HasAp [1],280 ± 30 nM
C1=[N+]2c3ccccc3[N+]3=Cc4ccccc4[O][Ga-]23[O]c2ccccc21 [GaSal],Kd,HasAp [2],2050 ± 280 nM
C=CC1=C(C)C2=Cc3c(C=C)c(C)c4[n]3[Fe][n]3c(c(C)c(CCC(=O)O)c3=CC3=NC(=C4)C(C)=C3CCC(=O)O)=CC1=N2 [heme],Kd,HasAp [3],350 ± 50 nM
